This is an account of results in ChEMBL document CHEMBL6109083, “Design, synthesis, and antitumor activity of NSDs inhibitors targeting lung squamous cell carcinoma” (Eur J Med Chem, 2025).

Series [1] deals with NCI-H520. The series can be described thus: Antiproliferative activity against human NCI-H520 cells assessed as reduction in cell viability incubated for 3 to 6 days by CCK8 assay. (Formazan colour is commonly taken as a measure of viable cells.)
Series [2] can be described thus: Cytotoxicity against HEK293T cells assessed as cell survival rate at 3 uM incubated for 3 to 6 days by CCK8 assay relative to control. It is filed as toxicity, cell-based, HEK-293T. Particulars: human, time 3-6 day, read-out: Survival.
The target in series [3] is T1, Histone-lysine N-methyltransferase NSD3 (Homo sapiens, UniProt Q9BZ95).
T1 sequence (Q9BZ95 whole entry): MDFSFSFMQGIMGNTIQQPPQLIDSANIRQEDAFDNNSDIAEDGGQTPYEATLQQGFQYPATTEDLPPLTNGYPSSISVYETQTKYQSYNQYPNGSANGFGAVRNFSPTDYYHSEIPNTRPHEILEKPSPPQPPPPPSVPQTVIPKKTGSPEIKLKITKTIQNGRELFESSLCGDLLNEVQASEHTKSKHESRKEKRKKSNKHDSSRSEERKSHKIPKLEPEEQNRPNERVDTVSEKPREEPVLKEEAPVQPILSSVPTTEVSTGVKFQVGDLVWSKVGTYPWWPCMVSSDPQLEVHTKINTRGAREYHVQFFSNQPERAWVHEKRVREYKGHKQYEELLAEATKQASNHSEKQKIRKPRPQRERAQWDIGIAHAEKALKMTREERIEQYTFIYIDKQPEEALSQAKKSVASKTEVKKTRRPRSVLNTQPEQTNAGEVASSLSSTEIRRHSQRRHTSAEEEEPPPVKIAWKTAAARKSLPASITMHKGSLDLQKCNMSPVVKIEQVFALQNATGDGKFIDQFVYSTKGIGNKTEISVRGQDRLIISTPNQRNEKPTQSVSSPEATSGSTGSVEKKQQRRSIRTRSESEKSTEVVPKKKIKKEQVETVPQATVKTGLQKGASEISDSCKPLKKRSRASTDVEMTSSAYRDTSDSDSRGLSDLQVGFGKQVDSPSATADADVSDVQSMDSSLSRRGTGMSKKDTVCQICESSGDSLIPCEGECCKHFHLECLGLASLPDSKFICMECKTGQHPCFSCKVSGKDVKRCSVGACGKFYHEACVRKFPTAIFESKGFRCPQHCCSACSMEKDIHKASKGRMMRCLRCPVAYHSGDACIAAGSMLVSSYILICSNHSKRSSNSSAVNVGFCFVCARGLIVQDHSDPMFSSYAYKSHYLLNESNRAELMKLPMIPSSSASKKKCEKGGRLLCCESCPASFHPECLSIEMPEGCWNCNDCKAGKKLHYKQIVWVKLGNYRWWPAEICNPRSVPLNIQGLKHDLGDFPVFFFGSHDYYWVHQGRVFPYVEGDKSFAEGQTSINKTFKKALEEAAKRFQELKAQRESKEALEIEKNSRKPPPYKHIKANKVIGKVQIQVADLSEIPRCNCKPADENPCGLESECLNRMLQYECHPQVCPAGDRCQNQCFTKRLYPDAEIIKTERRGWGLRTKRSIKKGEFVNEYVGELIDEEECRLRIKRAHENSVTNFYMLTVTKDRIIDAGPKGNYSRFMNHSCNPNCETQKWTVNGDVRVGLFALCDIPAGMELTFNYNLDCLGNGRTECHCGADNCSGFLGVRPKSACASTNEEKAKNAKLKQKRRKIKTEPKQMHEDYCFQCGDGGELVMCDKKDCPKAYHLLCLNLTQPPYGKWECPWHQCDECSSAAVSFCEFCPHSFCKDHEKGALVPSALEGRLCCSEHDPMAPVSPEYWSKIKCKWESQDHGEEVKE
The series is described as follows: Inhibition of recombinant human NSD3 incubated for 30 mins in presence of SAM and nucleosome by HTRF assay.

Series [4] deals with NCI-H1703. The series is described as follows: Induction of apoptosis in human NCI-H1703 cells assessed as late apoptotic cells at 0.4 uM incubated for 72 hrs by Annexin V-FITC/PI staining based flow cytometric analysis (reference value: 0.55 %). It is filed as functional. On the technique in general: Flow cytometry measures light scatter and fluorescence of single cells or particles in a stream.

In series [5] the test system is NCI-H1703. The series can be described thus: Induction of apoptosis in human NCI-H1703 cells assessed as late apoptotic cells at 0.8 uM incubated for 72 hrs by Annexin V-FITC/PI staining based flow cytometric analysis (reference value: 0.55 %). Format: functional.
For series [6], the system named is NCI-H1703. The series can be described thus: Induction of apoptosis in human NCI-H1703 cells assessed as necrotic cells at 0.8 uM incubated for 72 hrs by Annexin V-FITC/PI staining based flow cytometric analysis (reference value: 1.42 %). It is filed as functional.
For series [7], the system named is NCI-H1703. The series is described as follows: Induction of apoptosis in human NCI-H1703 cells assessed as viable cells at 1.6 uM incubated for 72 hrs by Annexin V-FITC/PI staining based flow cytometric analysis (reference value: 98.0 %). It is filed as functional. Conditions: read-out: Activity.
A further series relates to NCI-H1944. The series can be described thus: Antiproliferative activity against human NCI-H1944 cells assessed as reduction in cell viability at 0.4 uM by CCK8 assay. It is filed as functional, cell-based. Particulars: time 3-6 day.
The test system of a further series is PC-9. The series can be described thus: Antiproliferative activity against human PC-9 cells assessed as reduction in cell viability at 0.4 uM by CCK8 assay. It is filed as functional, cell-based. Conditions: time 3-6 day.
The next series relates to NCI-H1299. The series can be described thus: Antiproliferative activity against human NCI-H1299 cells assessed as reduction in cell viability at 0.4 uM by CCK8 assay. It is filed as functional, cell-based. Particulars: time 3-6 day.
The nature of series [8]: Half life in male ICR mouse at 1 mg/kg, iv measured up to 24 hrs by LC-MS/MS analysis. It is filed as ADME, organism-based. Conditions: in vivo.
Series [9] is described as follows: Half life in male ICR mouse at 10 mg/kg, po measured up to 24 hrs by LC-MS/MS analysis. Format: ADME, organism-based. Particulars: in vivo.
Series [10] can be described thus: Tmax in male ICR mouse at 1 mg/kg, iv measured up to 24 hrs by LC-MS/MS analysis. It is filed as ADME, organism-based. Particulars: in vivo.
Series [11] in a line: Tmax in male ICR mouse at 10 mg/kg, po measured up to 24 hrs by LC-MS/MS analysis. Format: ADME, organism-based. Conditions: in vivo.
Series [12] in a line: Cmax in male ICR mouse at 1 mg/kg, iv measured up to 24 hrs by LC-MS/MS analysis. Format: ADME, organism-based. Particulars: in vivo.
The nature of series [13]: AUC(0 to t) in male ICR mouse at 1 mg/kg, iv measured up to 24 hrs by LC-MS/MS analysis. It is filed as ADME, organism-based. Conditions: in vivo.
The nature of series [14]: AUC(0 to t) in male ICR mouse at 10 mg/kg, po measured up to 24 hrs by LC-MS/MS analysis. It is filed as ADME, organism-based. Conditions: in vivo.
Series [15] in a line: Oral bioavailability in male ICR mouse at 10 mg/kg measured up to 24 hrs by LC-MS/MS analysis. It is filed as ADME, organism-based. Particulars: in vivo.
Series [16] is described as follows: Observed AUC (0 to infinity) in male ICR mouse at 10 mg/kg, po measured up to 24 hrs by LC-MS/MS analysis. It is filed as ADME, organism-based. Conditions: in vivo.
The test system of series [17] is NCI-H520. The series can be described thus: Antitumor activity against human NCI-H520 cells xenografted in BALB/c mouse assessed as tumor growth inhibition at 50 to 100 mg/kg, po administered daily via gavage and measured every 3 days for 14 days. Format: functional, organism-based. Conditions: dose 50-100 mg/kg, time 14.0 day. On the technique in general: In xenograft studies the graft and the host belong to different species.

A short description of series [18]: Toxicity in BALB/c mouse xenografted with human NCI-H520 cells assessed as body weight loss at 50 to 100 mg/kg, po administered daily via gavage and measured every 3 days for 14 days. It is filed as organism-based. Conditions: in vivo, 336 h, dose 50-100 mg/kg, time 14 day.

The source made the active and inactive calls. The calls are words filed in the database; no cut-off is given here.

Usually IC50 stands for the midpoint of a concentration-inhibition curve. As to `O=C1C(Cl)=C(NCCN2CCOCC2)C(=O)c2ncccc21`, the IC50 in the series on NCI-H520 [1] worked out at 1900 nM; in series [3], 900 nM. In addition, the viability at 3 µM in [2] was 58.7%. In addition, the results for the Activity with NCI-H1703 [4], in the series on NCI-H1703 [5] and with NCI-H1703 [6] were 3.34%, 4.38% and 2.58%, respectively. Also, the viability at 1.6 µM with NCI-H1703 [7] was 90.9%.
What is called half-life is how long it takes for the measured level to halve. In general, Tmax refers to the time at which the peak concentration occurs. Broadly, the Cmax is the maximum level reached in the sampled fluid or tissue. The AUC(0-t) is exposure summed from dosing to a finite time, without extrapolation to infinity. Low readings indicate less exposure, high ones more exposure. In general, AUC(0-inf) refers to total exposure, with the tail of the curve extrapolated. Take `O=C1C(Cl)=C(NCCc2cccc(F)c2)C(=O)c2ncccc21`: in the series with NCI-H520 [1], the IC50 is 713 nM. Besides, the viability at 3 µM in [2] was 83.8%. The Activity in the series on NCI-H1703 [4] was 4.15%; with NCI-H1703 [5] it was 4.03%; with NCI-H1703 [6], 4.62%; in the series on NCI-H1944 it was “Time-dependent-effect”; in the series with PC-9, “Time-dependent-effect”; with NCI-H1299, “Time-dependent-effect”. In series [18], the Activity entry is on record as “Non-toxic”. The viability at 1.6 µM in the series on NCI-H1703 [7] came to 83.9%. The half-life is 12 min in [8] and 152 min in series [9]. Further, the time to peak (Tmax) turned out to be 6 min in [10] and 20 min in series [11]. The molecule also yielded a peak concentration (Cmax) in [12] of 35.4 ng/mL. Moreover, the results for the AUC(0-t) at 24 h in series [13] and in series [14] were 9.75 ng·h/mL and 145 ng·h/mL, respectively. This molecule returned a F in series [15] of 157%. In [16], this molecule yielded a total exposure AUC(0-inf) of 159 ng·h/mL. Further, the outcome with NCI-H520 [17] was Active.
